# According to paper PMC10060162, “Structural basis of mitochondrial membrane bending by the I–II–III2–IV2 supercomplex” (Nature, 2023):
# Legend:
# [1] = molecular target: complex IV monomer (cytochrome c oxidase) of Tetrahymena thermophila (Tetrahymena thermophila) (UniProt Q950Y7); assay: cryo-EM structure; single-particle cryo-EM of the native supercomplex co-purified from T. thermophila mitochondria; buffer D (25 mM HEPES-KOH pH 7.5, 25 mM KCl, 5 mM MgCl2, 0.1% w/v digitonin); 2.9 Å overall, masked refinements 2.6-3.0 Å
# [2] = molecular target: T1, NDUFA9 (Tetrahymena thermophila, UniProt I7MLH2); assay: cryo-EM structure; format: binding; details: co-purified; close to the CI Q-tunnel
# T1 construct: gene TTHERM_00557760; native subunit of complex I within supercomplex, digitonin
# T1 sequence (I7MLH2 27-362): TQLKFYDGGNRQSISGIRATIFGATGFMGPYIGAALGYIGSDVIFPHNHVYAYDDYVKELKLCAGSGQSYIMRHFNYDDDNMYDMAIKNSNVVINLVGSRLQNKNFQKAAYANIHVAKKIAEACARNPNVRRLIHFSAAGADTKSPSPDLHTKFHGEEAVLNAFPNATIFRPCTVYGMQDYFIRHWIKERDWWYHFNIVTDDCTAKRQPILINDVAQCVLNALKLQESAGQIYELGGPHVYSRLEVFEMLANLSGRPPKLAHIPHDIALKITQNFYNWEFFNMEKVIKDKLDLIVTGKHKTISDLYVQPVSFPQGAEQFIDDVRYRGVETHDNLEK
# [3] = molecular target: T2, NDUTT3 (Tetrahymena thermophila, UniProt I7LUQ4); assay: cryo-EM structure; format: binding; details: co-purified native ligand
# T2 construct: gene TTHERM_00268000; native matrix-arm subunit of complex I within supercomplex, digitonin
# T2 sequence (I7LUQ4 1-311): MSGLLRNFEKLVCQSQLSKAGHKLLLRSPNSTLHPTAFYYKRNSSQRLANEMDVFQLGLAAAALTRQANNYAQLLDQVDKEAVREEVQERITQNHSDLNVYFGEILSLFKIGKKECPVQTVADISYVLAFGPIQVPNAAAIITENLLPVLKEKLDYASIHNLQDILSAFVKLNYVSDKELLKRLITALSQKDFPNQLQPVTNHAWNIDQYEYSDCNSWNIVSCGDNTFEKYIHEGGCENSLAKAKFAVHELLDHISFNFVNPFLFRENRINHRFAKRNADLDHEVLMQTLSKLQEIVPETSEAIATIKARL
# [4] = molecular target: T3, SDHA (CII) (Tetrahymena thermophila, UniProt Q23DI3); assay: cryo-EM structure; format: binding; details: covalent
# T3 construct: gene TTHERM_00047080; native complex II in I-II-III2-IV2 supercomplex from mitochondria, digitonin; with Succinate dehydrogenase [ubiquinone] iron-sulfur subunit, mitochondrial; Succinate dehydrogenase membrane anchor subunit SDHC; Succinate dehydrogenase membrane anchor subunit SDHD (mitochondria-encoded)
# [5] = molecular target: T4, COB (CIII2) (Tetrahymena thermophila, UniProt Q950Z1); assay: cryo-EM structure; format: binding; details: co-purified; Qi site near haem bH (or semiquinone); second site between the two haem bL
# T4 construct: native; mitochondria-encoded subunit in complex III dimer within supercomplex, digitonin
# T4 sequence (Q950Z1 1-426): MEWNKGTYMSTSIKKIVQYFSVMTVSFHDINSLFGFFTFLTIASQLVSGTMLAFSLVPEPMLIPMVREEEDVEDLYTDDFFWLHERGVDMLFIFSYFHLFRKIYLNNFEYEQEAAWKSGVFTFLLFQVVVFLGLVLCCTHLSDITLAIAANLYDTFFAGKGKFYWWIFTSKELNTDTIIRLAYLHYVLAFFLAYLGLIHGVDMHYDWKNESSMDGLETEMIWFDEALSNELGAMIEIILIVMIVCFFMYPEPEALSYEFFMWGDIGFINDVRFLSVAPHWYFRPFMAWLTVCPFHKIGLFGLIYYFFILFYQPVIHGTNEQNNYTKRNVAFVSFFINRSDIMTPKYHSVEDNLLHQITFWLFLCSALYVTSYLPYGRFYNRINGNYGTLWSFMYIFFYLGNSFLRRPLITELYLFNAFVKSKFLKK
# [6] = molecular target: complex III monomer (cytochrome bc1) of Tetrahymena thermophila (Tetrahymena thermophila); assay: cryo-EM structure; single-particle cryo-EM of the native supercomplex co-purified from T. thermophila mitochondria; buffer D (25 mM HEPES-KOH pH 7.5, 25 mM KCl, 5 mM MgCl2, 0.1% w/v digitonin); 2.9 Å overall, masked refinements 2.6-3.0 Å
# T3 sequence (Q23DI3 1-636): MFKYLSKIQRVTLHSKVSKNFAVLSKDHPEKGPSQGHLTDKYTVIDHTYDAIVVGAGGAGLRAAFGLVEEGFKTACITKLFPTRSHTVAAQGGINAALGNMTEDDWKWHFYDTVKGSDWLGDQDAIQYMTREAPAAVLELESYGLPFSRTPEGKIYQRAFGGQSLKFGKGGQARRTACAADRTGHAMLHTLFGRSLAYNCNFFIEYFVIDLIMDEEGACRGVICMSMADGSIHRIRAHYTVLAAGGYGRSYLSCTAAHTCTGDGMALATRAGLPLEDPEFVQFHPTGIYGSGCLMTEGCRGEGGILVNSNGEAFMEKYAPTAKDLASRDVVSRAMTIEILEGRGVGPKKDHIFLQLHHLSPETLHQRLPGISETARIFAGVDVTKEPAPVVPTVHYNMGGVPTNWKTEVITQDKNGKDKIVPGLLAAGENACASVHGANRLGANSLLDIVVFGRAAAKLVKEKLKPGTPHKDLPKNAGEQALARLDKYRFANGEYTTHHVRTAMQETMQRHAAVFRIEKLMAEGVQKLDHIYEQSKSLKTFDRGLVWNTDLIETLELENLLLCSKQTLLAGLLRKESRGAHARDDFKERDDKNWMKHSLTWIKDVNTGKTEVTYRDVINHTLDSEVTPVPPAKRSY
compound,measurement,setting,value
complex IV monomer (cytochrome c oxidase) of Tetrahymena thermophila (from UniProt Q950Y7 1-453; Q950Y6 1-594),stoichiometry N,[1],2
NC(=O)C1=CN([C@@H]2O[C@H](COP(=O)(O)OP(=O)(O)OC[C@H]3O[C@@H](n4cnc5c(N)ncnc54)[C@H](OP(=O)(O)O)[C@@H]3O)[C@@H](O)[C@H]2O)C=CC1 [NADPH],cryo-EM structure,[2],NDUFA9 contains a bound NADPH molecule close to the CI Q-tunnel
Nc1ncnc2c1ncn2[C@@H]1O[C@H](COP(=O)(O)OP(=O)(O)O)[C@@H](O)[C@H]1O [ADP],cryo-EM structure,[3],subunits NDUTT1 with UDP and NDUTT3 with ADP
Cc1cc2nc3c(=O)[nH]c(=O)nc-3n(C[C@H](O)[C@H](O)[C@H](O)COP(=O)(O)OP(=O)(O)OC[C@H]3O[C@@H](n4cnc5c(N)ncnc54)[C@H](O)[C@@H]3O)c2cc1C [flavin adenine dinucleotide],cryo-EM structure,[4],"SDHA and SDHB forms a conserved head region, containing both the covalently bound FAD"
"COC1=C(OC)C(=O)C(C/C=C(\C)CC/C=C(\C)CC/C=C(\C)CC/C=C(\C)CC/C=C(\C)CC/C=C(\C)CC/C=C(\C)CCC=C(C)C)=C(C)C1=O [UQ, ubiquinone]",cryo-EM structure,[5],density for a bound (semi)-UQ was observed in the Qi site
complex III monomer (cytochrome bc1) of Tetrahymena thermophila,stoichiometry N,[6],2
